{"source": "patent US4616009A", "about": "“Neuroleptic indole-3-carboxamide derivatives” (Yoshitomi Pharmaceutical Industries, Ltd., priority 1983, dated 1986)", "key": {"[1]": {"settings": "reported in U.S. Pat. No. 3,527,761 / J. Med. Chem. 14, 1054 (1971); cited from earlier work"}, "[2]": {"settings": "reported in U.S. Pat. No. 3,527,761 / J. Med. Chem. 14, 1054 (1971); cited from earlier work", "remark": "listed apart in the source"}, "apomorphine [3]": {"system": "apomorphine", "test": "Antiapomorphine activity in mice (spontaneous motility, Animex)", "type": "in vivo, mice (male dd-strain)", "settings": "Mus musculus, 60 min before apomorphine hydrochloride 0.5 mg/kg s.c., dose for 50% suppression of spontaneous motility of control group over 20 min", "experimental": "Antiapomorphine Activity in Mice\nGroups of 5 male dd-strain mice were used. Test compounds were orally or intraperitoneally administered and 60 minutes thereafter, 0.5 mg/kg of apomorphine hydrochloride was subcutaneously administered. Immediately thereafter, spontaneous motility of the mice was measured with the aid of Animex (manufactured by Columbus Company, U.S.A.) for 20 minutes. The procedure was repeated three times with respective groups. The dose of test compounds required for 50% suppression of spontaneous motility of control group was graphically intraporated and determined as ED50 value."}, "[4]": {"test": "Acute toxicity in mice, oral administration", "type": "in vivo", "settings": "500 mg/kg, 5 days observation, male mice", "description": "The acute toxicity of the compounds of the present invention was studied in 5 male mice weighing 30 to 45 g."}, "[5]": {"settings": "reported; cited from earlier work"}, "[6]": {"test": "antihypertensive activity", "settings": "according to studies of the present inventors"}, "[7]": {"settings": "prior art; cited from earlier work"}, "apomorphine [8]": {"system": "apomorphine", "test": "apomorphine-antagonistic activity (studies of the present inventors)", "settings": "according to studies of the present inventors"}}, "note": "Like-named read-outs stand apart in the source and are kept apart here."}
{"smiles": "O=C(NC1CCN(CCc2c[nH]c3ccccc23)CC1)c1c[nH]c2ccccc12", "note": "[3-{2-[4-(3-indolecarboxamido)-piperidino]ethyl}indole]", "values": [{"measurement": "antihistaminic activity", "setting": "[1]", "value": "antihistaminic activities"}, {"measurement": "antihypertensive activity", "setting": "[2]", "value": "having antihypertensive"}]}
{"smiles": "CCN1CCCC1CNC(=O)c1c(C)[nH]c2ccccc12", "note": "(stereo not shown) [Example 1, N-(1-ethyl-2-pyrrolidinylmethyl)-2-methylindole-3-carboxamide]", "values": [{"measurement": "ED50", "setting": "apomorphine [3]; po", "value": 17, "unit": "mg/kg"}]}
{"smiles": "Cc1[nH]c2ccc(F)cc2c1C(=O)NC1CCN(Cc2ccccc2)CC1", "note": "[Example 2, N-(1-benzyl-4-piperidyl)-5-fluoro-2-methylindole-3-carboxamide]", "values": [{"measurement": "mortality (acute toxicity)", "setting": "[4]", "value": "All animals were survived"}, {"measurement": "ED50", "setting": "apomorphine [3]; po", "value": 4.6, "unit": "mg/kg"}]}
{"smiles": "O=C(NC1CCN(Cc2ccccc2)CC1)c1c[nH]c2ccc(F)cc12", "note": "[Example 3, N-(1-benzyl-4-piperidyl)-5-fluoroindole-3-carboxamide]", "values": [{"measurement": "ED50", "setting": "apomorphine [3]; po", "value": 9.5, "unit": "mg/kg"}]}
{"smiles": "Cc1c(C(=O)NC2CCN(Cc3ccccc3)CC2)c2cc(F)ccc2n1C", "note": "[Example 4, N-(1-benzyl-4-piperidyl)-5-fluoro-1,2-dimethylindole-3-carboxamide]", "values": [{"measurement": "ED50", "setting": "apomorphine [3]; po", "value": 27, "unit": "mg/kg"}]}
{"smiles": "Cc1[nH]c2ccccc2c1C(=O)NC1CCN(Cc2ccccc2)CC1", "note": "[Example 7, N-(1-benzyl-4-piperidyl)-2-methylindole-3-carboxamide]", "values": [{"measurement": "ED50", "setting": "apomorphine [3]; po", "value": 8.7, "unit": "mg/kg"}]}
{"smiles": "O=C(NC1CCN(Cc2ccccc2)CC1)c1c[nH]c2ccccc12", "note": "[Example 8, N-(1-Benzyl-4-piperidyl)indole-3-carboxamide]", "values": [{"measurement": "ED50", "setting": "apomorphine [3]; po", "value": 7, "unit": "mg/kg"}]}
{"smiles": "CCN1CCCC1CNC(=O)c1c(C)[nH]c2ccc(Cl)cc12", "note": "(stereo not shown) [Example 9, 5-Chloro-N-(1-ethyl-2-pyrrolidinylmethyl)-2-methylindole-3-carboxamide]", "values": [{"measurement": "ED50", "setting": "apomorphine [3]; po", "value": 30, "unit": "mg/kg"}]}
{"smiles": "CCN1CCCC1CNC(=O)c1c(C)[nH]c2ccc(F)cc12", "note": "(stereo not shown) [Example 10, N-(1-Ethyl-2-pyrrolidinylmethyl)-5-fluoro-2-methylindole-3-carboxamide]", "values": [{"measurement": "ED50", "setting": "apomorphine [3]; ip", "value": 10, "unit": "mg/kg"}]}
{"smiles": "Cc1[nH]c2ccc(F)cc2c1C(=O)NC1CCN(Cc2ccccc2)C1", "note": "(stereo not shown) [Example 12, N-(1-Benzyl-3-pyrrolidinyl)-5-fluoro-2-methylindole-3-carboxamide]", "values": [{"measurement": "ED50", "setting": "apomorphine [3]; po", "value": 5.6, "unit": "mg/kg"}]}
{"smiles": "Cc1[nH]c2ccc(F)cc2c1C(=O)NC1CCN(Cc2ccc(Cl)cc2)CC1", "note": "[Example 13, N-[1-(p-Chlorobenzyl)-4-piperidyl]-5-fluoro-2-methylindole-3-carboxamide]", "values": [{"measurement": "ED50", "setting": "apomorphine [3]; po", "value": 5.6, "unit": "mg/kg"}]}
{"smiles": "Cc1[nH]c2ccc(F)cc2c1C(=O)NC1CCN(Cc2ccc(F)cc2)CC1", "note": "[Example 14, 5-Fluoro-N-[1-(p-fluorobenzyl)-4-piperidyl]-2-methylindole-3-carboxamide]", "values": [{"measurement": "ED50", "setting": "apomorphine [3]; po", "value": 5.2, "unit": "mg/kg"}]}
{"smiles": "Cc1[nH]c2ccc(F)cc2c1C(=O)NC1CCN(Cc2cccc(Cl)c2)CC1", "note": "[Example 18, N-[1-(m-Chlorobenzyl)-4-piperidyl]-5-fluoro-2-methylindole-3-carboxamide]", "values": [{"measurement": "ED50", "setting": "apomorphine [3]; po", "value": 24, "unit": "mg/kg"}]}
{"smiles": "CCN1CCCC1CNC(=O)c1cc(S(N)(=O)=O)ccc1OC", "note": "(stereo not shown) [Sulpiride, reference compound]", "values": [{"measurement": "ED50", "setting": "apomorphine [3]; po", "value": 330, "unit": "mg/kg"}, {"measurement": "bioavailability in oral administration", "setting": "[5]", "value": "low bioavailability"}]}
{"smiles": "O=C(NC1CCN(CCc2c[nH]c3ccccc23)CC1)c1ccccc1", "note": "[indoramin, 3-[2-(4-benzamido-1-piperidyl)-ethyl]indole]", "values": [{"measurement": "antihypertensive activity", "setting": "[6]", "value": "relatively strong"}, {"measurement": "anticonvulsant activity", "setting": "[7]", "value": "anticonvulsant activity"}, {"measurement": "antihistaminic activity", "setting": "[1]", "value": "exhibits antihistaminic activity"}, {"measurement": "antihypertensive activity", "setting": "[2]", "value": "stronger antihypertensive activity"}, {"measurement": "apomorphine-antagonistic activity", "setting": "apomorphine [8]", "value": "weak"}]}
